This note sets out measurements from US6410585B1, “Inhibitors of protein tyrosine phosphatase” (priority 1997, dated 2002).

For one experiment, the target named is T1, human PTP1B (Homo sapiens, UniProt P18031).
T1 construct: human PTP1B (amino acid residues 1-321); made in house; host or cells: E. coli BL21(DE3)
T1 sequence (P18031 1-321): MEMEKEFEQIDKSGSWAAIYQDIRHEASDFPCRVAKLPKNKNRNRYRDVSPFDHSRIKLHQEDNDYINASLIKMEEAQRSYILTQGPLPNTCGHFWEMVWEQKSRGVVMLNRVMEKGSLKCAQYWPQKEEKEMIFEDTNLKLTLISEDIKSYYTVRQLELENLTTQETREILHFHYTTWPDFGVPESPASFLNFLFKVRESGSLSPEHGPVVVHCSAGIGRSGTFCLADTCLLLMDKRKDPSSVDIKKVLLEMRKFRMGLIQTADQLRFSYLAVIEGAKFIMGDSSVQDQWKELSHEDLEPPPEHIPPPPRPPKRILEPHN
Briefly: PTP1B assay, pNPP hydrolysis, assayed exactly as for PTP1. Type of experiment: biochemical. The note with it: for inhibition at 1 µM: Conc 1 uM; for inhibition at 1 µM / inhibition at 10 µM / inhibition at 100 µM: Table 2, read-out: PTP1B Inhib PTP1B. % Inhib; for PTP1B Inhib PTP1B. % Inhib: Table 2. From the text:
The equivalent construct of human PTP1B (amino acid residues 1-321) (cloned from a human placental library), without the GST tag and thrombin cleavage site, was inserted into a pMB replicon and transformed into E. coli BL21(DE3), a strain containing a chromosomal copy of the gene for T7 RNA polymerase under control of a lacUV5 promoter. Expression of PTP1B was induced with isopropyl thiogalactose and the soluble protein was purified by ion exchange, hydrophobic interaction and gel exclusion chromatography for use in the assay to identify PTP inhibitors.
PTP1 activity is measured using either p-nitrophenol phosphate (pNPP) or a triphosphopeptide (that matches residues 1142 through 1153 of the β-subunit and the insulin receptor) as substrate in a 96-well microtiter plate format. An assay pH of 7.2 is used for standard assays (measured 405=9800 at pH 7.2).
Human PTP1B, which is highly homologous to rat PTP1, was assayed exactly as described above for PTP1.
Standard assays are conducted at room temperature in a total volume of 0.2 ml that contains Hepes buffer (50 mM, pH 7.2), NaCl (50 mM), EDTA (1 mM), DTT (1 mM), bovine serum albumin (1 mg/ml), pNPP (1 mM) and PTP1 (35 ng/ml). Compounds (2 μl of 10 mM solutions) are pipetted into wells of microtiter plates followed by 198 μl of premixed reaction mix (with PTP1 and pNPP added immediately before use). The rate of change in A405 is recorded for 60 min. Two wells on each plate contain DMSO controls and two wells contain sodium orthovanadate (1 mM) which inhibits PTP1-catalyzed hydrolysis of pNPP completely. Data are expressed as percent inhibition relative to the average of the DMSO controls measured on the same microtiter plate.

Another experiment has as its target T2, rat PTP1 (Rattus norvegicus, UniProt P20417).
T2 construct: a C-terminal truncation of rat PTP1 (amino acid residues 1-322); GST (N, cleaved yes); made in house; host or cells: E. coli strain TG-1 (pGEX-2T)
T2 sequence (P20417 1-322): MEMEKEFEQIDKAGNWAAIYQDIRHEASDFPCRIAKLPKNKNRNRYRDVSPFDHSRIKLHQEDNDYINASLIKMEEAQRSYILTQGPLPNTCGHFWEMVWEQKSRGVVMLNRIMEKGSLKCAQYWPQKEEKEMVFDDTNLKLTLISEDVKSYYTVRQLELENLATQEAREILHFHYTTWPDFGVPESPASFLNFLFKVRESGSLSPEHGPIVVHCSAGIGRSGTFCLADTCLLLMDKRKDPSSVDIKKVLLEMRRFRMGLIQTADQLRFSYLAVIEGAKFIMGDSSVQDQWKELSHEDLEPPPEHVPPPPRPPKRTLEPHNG
Briefly: PTP1 assay, pNPP hydrolysis (rate of change in A405). The experiment is classed as biochemical. The following applies: pNPP hydrolysis, Table 1, read-out: PTP1 Inhib % Inhib; for inhibition at 1 µM: Conc 1 uM; for inhibition at 10 µM: Conc 10 uM; for inhibition at 100 µM: Conc 100 uM. The method in brief: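 Thrombin-cleaved rat PTP1 residues 1-322 (35 ng/ml) with 1 mM pNPP in 50 mM Hepes pH 7.2, NaCl, EDTA, DTT, BSA at room temperature. A405 rate followed 60 min. Compounds added as 10 mM solutions; percent inhibition relative to plate DMSO controls, 1 mM orthovanadate as full-inhibition control.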

In the case of `CCCCCNC(=O)C(Cc1ccc(OCCOO)c(COO)c1)NC(=O)N(Cc1ccccc1)Cc1ccccc1` (centres unmarked), the inhibition at 1 µM on human PTP1B was 11%. Also, the inhibition at 10 µM at human PTP1B (Conc 10 uM) was found to be 45%. The inhibition at 100 µM at human PTP1B (Conc 100 uM) is 87%.

With `CCCCCNC(=O)C(Cc1ccc(OCCOO)c(COO)c1)NC(=O)C(Cc1ccccc1)NC(=O)Cc1ccc(C(F)(F)F)cc1` (centres unmarked), the inhibition at 1 µM on human PTP1B amounted to 39%. Also, the inhibition at 10 µM on human PTP1B (Conc 10 uM) turned out to be 85%. The inhibition at 100 µM on human PTP1B (Conc 100 uM) is 98%.

Turning to `CCCCCNC(=O)C(Cc1ccc(OC(COO)COO)cc1)NC(=O)C(COCc1ccccc1)NC(=O)OC(C)(C)C` (centres unmarked), the inhibition at 1 µM on human PTP1B was determined as 3%. Further, the inhibition at 10 µM on human PTP1B (Conc 10 uM) was 19%. Besides, at human PTP1B (Conc 100 uM), the inhibition at 100 µM is 71%.

With `CCCCCNC(=O)[C@H](Cc1ccc(OCC(=O)O)c(C(=O)O)c1)NC(=O)C(Cc1ccccc1)NC(=O)Cn1nnnc1S` (some centres unmarked), the inhibition at 1 µM at human PTP1B is 57%. For the same compound, on human PTP1B (Conc 10 uM), the inhibition at 10 µM is 91%. Further, the inhibition at 100 µM at human PTP1B (Conc 100 uM) stood at 98%.

As to `CCCCCNC(=O)C(Cc1ccc(OCCOO)c(COO)c1)NC(=O)C(Cc1ccccc1)NC(=O)CCc1ccccc1` (centres unmarked), the inhibition at 1 µM at human PTP1B is 22%. For the same compound, the inhibition at 10 µM at human PTP1B (Conc 10 uM) stood at 74%. The inhibition at 100 µM at human PTP1B (Conc 100 uM) was found to be 95%.

For `CCCCCNC(=O)C(Cc1ccc(OCCOO)c(COO)c1)NC(=O)C(Cc1ccccc1)NC(=O)Cc1c[nH]c2ccccc12` (centres unmarked), the inhibition at 1 µM on human PTP1B turned out to be 47%. Also, at human PTP1B (Conc 10 uM), the inhibition at 10 µM was 88%. Also, the inhibition at 100 µM on human PTP1B (Conc 100 uM) turned out to be 98%.

For `CCCCCNC(=O)C(Cc1ccc(OC(COO)COO)cc1)NC(=O)C(Cc1ccc(O)cc1)NC(=O)OC(C)(C)C` (centres unmarked), the inhibition at 1 µM at human PTP1B was 10%. Moreover, the inhibition at 10 µM on human PTP1B (Conc 10 uM) was found to be 50%. Besides, the inhibition at 100 µM at human PTP1B (Conc 100 uM) turned out to be 90%.

For the compound `CCCCCNC(=O)C(Cc1ccc(OC(COO)COO)cc1)NC(=O)C(Cc1ccccc1)NS(=O)OCc1ccccc1` (centres unmarked), the inhibition at 1 µM on human PTP1B is 4%. Also, on human PTP1B (Conc 10 uM), the inhibition at 10 µM stood at 16%. At human PTP1B (Conc 100 uM), the inhibition at 100 µM is 62%.

For `CCCCCNC(=O)[C@H](Cc1ccc(N(CC(=O)O)CC(=O)O)cc1)NC(=O)[C@H](Cc1ccccc1)NC(=O)OC(C)(C)C`, on human PTP1B, the inhibition at 1 µM was found to be 3%. Besides, the inhibition at 10 µM on human PTP1B (Conc 10 uM) was 6%. Further, the inhibition at 100 µM at human PTP1B (Conc 100 uM) worked out at 29%.

For the compound `CCCCCNC(=O)C(Cc1ccc(OC(COO)COO)cc1)NC(=O)N(Cc1ccccc1)C(CCc1ccccc1)CC(=O)O` (centres unmarked), the inhibition at 1 µM at human PTP1B was 5%. Also, the inhibition at 10 µM at human PTP1B (Conc 10 uM) is 8%. Further, the inhibition at 100 µM at human PTP1B (Conc 100 uM) was determined as 42%.

On to `CCCCCNC(=O)C(Cc1ccc(OC(COO)COO)cc1)NC(=O)N1CCN(C(=O)OC(C)(C)C)CC1` (centres unmarked), for which the inhibition at 1 µM on human PTP1B is 19%. At human PTP1B (Conc 10 uM), the “PTP1B Inhib PTP1B. % Inhib” value was found to be 63% and the inhibition at 10 µM came to 68%. On human PTP1B (Conc 100 uM), the “PTP1B Inhib PTP1B. % Inhib” value came to 92% and the inhibition at 100 µM came out at 95%.

In the case of `CCCCCNC(=O)C(Cc1ccc(OC(COO)COO)cc1)NC(=O)C(Cc1ccccc1)NC(=O)CCN(CC)CC` (centres unmarked), the inhibition at 1 µM on human PTP1B was 12%. Further, the inhibition at 10 µM at human PTP1B (Conc 10 uM) turned out to be 54%. On human PTP1B (Conc 100 uM), the inhibition at 100 µM was found to be 92%.

`CCCCCNC(=O)[C@H](Cc1ccc(OC(C(=O)O)C(=O)O)cc1)NC(=O)C(CC(=O)O)CC(=O)O`: on rat PTP1, the inhibition at 1 µM came to 1%, the inhibition at 10 µM was found to be 33% and the inhibition at 100 µM is 83%.

As for `CCCCCNC(=O)[C@H](Cc1ccc(OC(C(=O)O)C(=O)O)cc1)NC(=O)CCC(N)=O`, on rat PTP1, the inhibition at 1 µM was determined as 0%, the inhibition at 10 µM is 11% and the inhibition at 100 µM stood at 51%.

`CCCCCNC(=O)C(Cc1ccc(OC(COO)COO)cc1)NC(=O)N(CC(=O)O)Cc1ccccc1` (centres unmarked): at rat PTP1, the inhibition at 1 µM worked out at 3%, the inhibition at 10 µM turned out to be 25% and the inhibition at 100 µM turned out to be 75%.

Regarding `O=C(O)CCC(=O)NC(Cc1ccc(OC(COO)COO)cc1)C(=O)NCCCc1ccccc1` (centres unmarked), at rat PTP1, the inhibition at 1 µM turned out to be 8%, the inhibition at 10 µM amounted to 23% and the inhibition at 100 µM was 72%.
